Calls of active or inactive are those of the source. The calls are words filed in the database; no cut-off is given here.
How the values were obtained:
[1] = target: T1, Protein cereblon/Cyclin-dependent kinase 9 (Homo sapiens, UniProt P50750+Q96SW2); experiment: PROTAC activity at CRBN/CDK9 in human NCI-H69 cells assessed as induction of CDK9 degradation preincubated with MG132 for 2 hrs followed by compound addition and measured after 3 hrs by Western blot analysis; format: cell-based
[2] = target: T1, Protein cereblon/Cyclin-dependent kinase 9; experiment: PROTAC activity at CRBN/CDK9 in human NCI-H69 cells assessed as induction of CDK9 degradation at 10 nM by Western blot analysis relative to control; format: cell-based
[3] = system: NCI-H69; experiment: Inhibition of colony formation in human NCI-H69 cells at 2 to 4 nM incubated for 8 days by crystal violet staining based analysis; format: functional, cell-based; settings: dose 2-4 nM, time 8.0 day
[4] = target: Cyclin-dependent kinase 13/Cyclin-K (Homo sapiens) (UniProt Q14004+O75909); experiment: Inhibition of CDK13/Cyclin K (unknown origin) at 10 nM relative to control; format: protein-complex assay
Chain of Cyclin-dependent kinase 13/Cyclin-K (Homo sapiens) (O75909 whole entry, looked up): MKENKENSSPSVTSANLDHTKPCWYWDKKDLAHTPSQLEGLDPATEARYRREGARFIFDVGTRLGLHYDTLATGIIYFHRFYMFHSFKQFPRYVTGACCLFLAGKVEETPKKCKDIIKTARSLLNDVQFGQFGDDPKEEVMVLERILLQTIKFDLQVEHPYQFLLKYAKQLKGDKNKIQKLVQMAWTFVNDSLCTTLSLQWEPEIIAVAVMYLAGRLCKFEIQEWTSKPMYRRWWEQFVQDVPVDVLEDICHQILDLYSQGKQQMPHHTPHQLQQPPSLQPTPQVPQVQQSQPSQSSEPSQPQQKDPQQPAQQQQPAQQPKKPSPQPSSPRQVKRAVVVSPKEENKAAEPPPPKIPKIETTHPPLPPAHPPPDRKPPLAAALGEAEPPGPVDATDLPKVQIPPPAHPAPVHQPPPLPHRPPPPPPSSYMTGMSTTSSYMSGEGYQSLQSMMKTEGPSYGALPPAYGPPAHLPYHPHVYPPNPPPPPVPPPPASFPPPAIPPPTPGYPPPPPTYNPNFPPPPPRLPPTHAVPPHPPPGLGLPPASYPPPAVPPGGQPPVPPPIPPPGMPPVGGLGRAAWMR
Chain of Cyclin-dependent kinase 13/Cyclin-K (Homo sapiens) (Q14004 whole entry, looked up): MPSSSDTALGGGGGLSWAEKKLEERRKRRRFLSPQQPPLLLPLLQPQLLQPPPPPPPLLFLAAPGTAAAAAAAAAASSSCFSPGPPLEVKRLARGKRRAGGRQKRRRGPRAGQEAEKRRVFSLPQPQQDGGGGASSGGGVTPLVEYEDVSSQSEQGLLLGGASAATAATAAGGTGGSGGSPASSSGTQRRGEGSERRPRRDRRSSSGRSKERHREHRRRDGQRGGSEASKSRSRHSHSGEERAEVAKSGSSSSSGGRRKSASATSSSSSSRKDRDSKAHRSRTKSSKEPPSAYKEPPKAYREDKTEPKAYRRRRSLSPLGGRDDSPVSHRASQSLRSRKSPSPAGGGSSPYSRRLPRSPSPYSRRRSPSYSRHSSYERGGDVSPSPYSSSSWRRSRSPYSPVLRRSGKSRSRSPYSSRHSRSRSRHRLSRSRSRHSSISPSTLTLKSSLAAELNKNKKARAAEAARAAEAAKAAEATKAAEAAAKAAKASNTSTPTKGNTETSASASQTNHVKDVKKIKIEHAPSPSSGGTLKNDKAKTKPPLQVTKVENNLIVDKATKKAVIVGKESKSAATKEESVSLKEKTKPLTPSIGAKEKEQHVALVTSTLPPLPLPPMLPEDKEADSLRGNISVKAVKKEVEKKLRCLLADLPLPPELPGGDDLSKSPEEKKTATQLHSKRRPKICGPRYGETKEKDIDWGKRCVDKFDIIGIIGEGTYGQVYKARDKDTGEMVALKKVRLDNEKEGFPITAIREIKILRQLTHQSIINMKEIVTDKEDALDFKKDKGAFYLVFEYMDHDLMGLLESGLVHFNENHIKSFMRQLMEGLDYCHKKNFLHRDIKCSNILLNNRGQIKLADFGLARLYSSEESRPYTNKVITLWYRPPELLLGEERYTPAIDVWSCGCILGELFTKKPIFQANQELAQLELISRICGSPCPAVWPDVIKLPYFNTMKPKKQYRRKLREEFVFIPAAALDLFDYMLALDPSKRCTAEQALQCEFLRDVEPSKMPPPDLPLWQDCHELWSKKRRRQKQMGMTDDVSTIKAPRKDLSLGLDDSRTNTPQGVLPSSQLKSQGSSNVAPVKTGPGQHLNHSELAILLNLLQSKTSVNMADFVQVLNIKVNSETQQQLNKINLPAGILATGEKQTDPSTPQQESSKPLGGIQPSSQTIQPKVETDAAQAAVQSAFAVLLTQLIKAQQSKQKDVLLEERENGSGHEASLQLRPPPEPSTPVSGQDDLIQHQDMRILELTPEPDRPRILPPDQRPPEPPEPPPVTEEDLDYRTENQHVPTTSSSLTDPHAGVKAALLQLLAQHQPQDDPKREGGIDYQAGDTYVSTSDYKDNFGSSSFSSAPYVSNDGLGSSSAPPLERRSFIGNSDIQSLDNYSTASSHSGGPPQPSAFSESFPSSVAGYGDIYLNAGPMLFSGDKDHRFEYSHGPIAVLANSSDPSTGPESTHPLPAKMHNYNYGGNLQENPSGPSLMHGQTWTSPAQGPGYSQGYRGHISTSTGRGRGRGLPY

[5] = system: Small cell lung cancer cell line; experiment: Antitumor activity against LDI-0060-200770 patient derived Small cell lung cancer cell line xenografted in BALB/c nude mouse assessed as reduction in tumor growth at 25 mg/kg, po administered once daily for 7 days; format: functional, organism-based; settings: Homo sapiens, time 7.0 day
[6] = target: Cyclin-dependent kinase 9 (Homo sapiens) (UniProt P50750); experiment: Inhibition of CDK9-related signaling in human NCI-H69 cells assessed as decrease in RNA polymerase II phosphorylation at Ser5 residue at 0.5 to 10 nM incubated for 24 hrs by Western blot analysis; format: cell-based; settings: dose 0.5-10 nM
Chain of Cyclin-dependent kinase 9 (Homo sapiens) (P50750 whole entry): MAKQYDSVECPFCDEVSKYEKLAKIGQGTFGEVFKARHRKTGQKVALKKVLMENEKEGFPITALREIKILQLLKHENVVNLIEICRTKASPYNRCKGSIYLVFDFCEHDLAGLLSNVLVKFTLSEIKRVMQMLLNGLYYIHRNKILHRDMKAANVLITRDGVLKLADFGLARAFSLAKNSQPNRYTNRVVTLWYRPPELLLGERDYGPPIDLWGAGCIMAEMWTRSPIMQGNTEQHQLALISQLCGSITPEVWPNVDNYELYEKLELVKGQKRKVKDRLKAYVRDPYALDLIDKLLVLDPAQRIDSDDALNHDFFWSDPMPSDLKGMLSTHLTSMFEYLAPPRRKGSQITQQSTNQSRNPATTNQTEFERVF

[7] = target: T1, Protein cereblon/Cyclin-dependent kinase 9; experiment: PROTAC activity at CRBN/CDK9 in human NCI-H69 cells assessed as increase in CDK9 ubiquitination preincubated with MG132 for 2 hrs followed by compound addition and measured after 3 hrs by co-immunoprecipitation analysis; format: cell-based
[8] = system: DMS-53; experiment: Inhibition of cell invasion in human DMS-53 cells assessed as decrease in number of cells passing through upper chamber at 2to 4 nM incubated for 48 hrs by crystal violet staining based microscopic analysis; format: functional
[9] = target: T1, Protein cereblon/Cyclin-dependent kinase 9; experiment: PROTAC activity at CRBN/CDK9 in human NCI-H69 cells assessed as induction of CDK9 degradation at 10 nM by Western blot analysis; format: cell-based; settings: time 0.5-12 hrs
[10] = system: NCI-H446; experiment: Antitumor activity against human NCI-H446 cells xenografted in female NU-NU mouse model assessed as decrease in Ki67 level in tumor at 12.5 to 25 mg/kg, po administered once daily for 15 days by immunohistochemical staining based analysis; format: functional, organism-based; settings: dose 12.5-25 mg/kg, time 15.0 day
[11] = system: DMS-114; experiment: Inhibition of cell invasion in human DMS-114 cells assessed as decrease in number of cells passing through upper chamber at 2to 4 nM incubated for 48 hrs by crystal violet staining based microscopic analysis; format: functional
[12] = system: NCI-H446; experiment: Antitumor activity against human NCI-H446 cells expressing luciferase-GFP xenografted in female NU-NU mouse model assessed as decrease in systemic metastasis at 12.5 to 25 mg/kg, po administered for 19 days; format: functional, organism-based; settings: dose 12.5-25 mg/kg, time 19.0 day
[13] = target: CDK6/cyclin D1 (Homo sapiens) (UniProt P24385+Q00534); experiment: Inhibition of CDK6/cyclin D1 (unknown origin) at 10 nM relative to control; format: protein-complex assay
[14] = target: CDK9/cyclin T1 (Homo sapiens) (UniProt O60563+P50750); experiment: Inhibition of CDK9/Cyclin T1 (unknown origin) at 10 nM relative to control; format: protein-complex assay
[15] = system: NCI-H446; experiment: Antiproliferative activity against human NCI-H446 cells assessed as reduction in cell viability incubated for 72 hrs in presence of thalidomide by celltiter-Glo assay; format: functional, cell-based
[16] = target: T1, Protein cereblon/Cyclin-dependent kinase 9; experiment: In vivo PROTAC activity at CRBN/CDK9 in female NU/NU mouse model xenografted with human NCI-H446 cells assessed as decrease in CDK9 expression in tumor at 12.5 to 25 mg/kg, po administered once daily for 15 days by immunohistochemical staining based analysis; format: functional, organism-based; settings: dose 12.5-25 mg/kg, time 15.0 day
[17] = system: NCI-H69; experiment: Antiproliferative activity against human NCI-H69 cells assessed as reduction in cell viability incubated for 72 hrs in presence of thalidomide by celltiter-Glo assay; format: functional, cell-based
[18] = target: T1, Protein cereblon/Cyclin-dependent kinase 9; experiment: PROTAC activity at CRBN/CDK9 in human NCI-H69 cells assessed as induction of CDK9 degradation preincubated with thalidomide for 2 hrs followed by compound addition and measured after 3 hrs by Western blot analysis; format: cell-based
[19] = target: CDK4/Cyclin D3 (Homo sapiens) (UniProt P11802+P30281); experiment: Inhibition of CDK4/cyclin D3 (unknown origin) at 10 nM relative to control; format: protein-complex assay
[20] = system: NCI-H446; experiment: Antitumor activity against human NCI-H446 cells xenografted in female NU-NU mouse model assessed as increase in cleaved caspase-3 expression in tumor at 12.5 to 25 mg/kg, po administered once daily for 15 days by immunohistochemical staining based analysis; format: functional, organism-based; settings: dose 12.5-25 mg/kg, time 15.0 day
[21] = target: Cyclin-dependent kinase 5/CDK5 activator 1 (Homo sapiens) (UniProt Q00535+Q15078); experiment: Inhibition of CDK5/p25NCK (unknown origin) at 10 nM relative to control; format: protein-complex assay
Chain of Cyclin-dependent kinase 5/CDK5 activator 1 (Homo sapiens) (Q00535 whole entry): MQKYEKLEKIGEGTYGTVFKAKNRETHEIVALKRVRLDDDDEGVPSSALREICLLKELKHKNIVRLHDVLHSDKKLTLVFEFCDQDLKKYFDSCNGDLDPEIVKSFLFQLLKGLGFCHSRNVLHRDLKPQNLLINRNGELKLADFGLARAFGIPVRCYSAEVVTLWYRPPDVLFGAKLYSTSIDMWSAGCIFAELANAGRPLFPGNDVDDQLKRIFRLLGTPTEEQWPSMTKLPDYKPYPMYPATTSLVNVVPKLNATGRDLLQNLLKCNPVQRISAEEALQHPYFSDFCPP
Chain of Cyclin-dependent kinase 5/CDK5 activator 1 (Homo sapiens) (Q15078 99-307 partner limits assumed): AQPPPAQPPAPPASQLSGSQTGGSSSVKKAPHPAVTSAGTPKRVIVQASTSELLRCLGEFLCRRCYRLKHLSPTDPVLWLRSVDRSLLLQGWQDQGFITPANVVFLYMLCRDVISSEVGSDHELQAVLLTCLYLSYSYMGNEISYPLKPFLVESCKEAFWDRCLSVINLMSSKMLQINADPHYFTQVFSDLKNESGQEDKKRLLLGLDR

[22] = target: T1, Protein cereblon/Cyclin-dependent kinase 9; experiment: PROTAC activity at CRBN/CDK9 in human NCI-H446 cells assessed as increase in CDK9 ubiquitination preincubated with MG132 for 2 hrs followed by compound addition and measured after 3 hrs by co-immunoprecipitation analysis; format: cell-based
[23] = system: NCI-H69; experiment: Induction of apoptosis in human NCI-H69 cells at 1 nM by microscopic analysis; format: functional, cell-based
[24] = target: CDK6/cyclin D3 (Homo sapiens) (UniProt P30281+Q00534); experiment: Inhibition of CDK6/cyclin D3 (unknown origin) at 10 nM relative to control; format: protein-complex assay

T1 sequence (P50750 whole entry, looked up): as the sequence (P50750 whole entry) above
T1 sequence (Q96SW2 whole entry, looked up): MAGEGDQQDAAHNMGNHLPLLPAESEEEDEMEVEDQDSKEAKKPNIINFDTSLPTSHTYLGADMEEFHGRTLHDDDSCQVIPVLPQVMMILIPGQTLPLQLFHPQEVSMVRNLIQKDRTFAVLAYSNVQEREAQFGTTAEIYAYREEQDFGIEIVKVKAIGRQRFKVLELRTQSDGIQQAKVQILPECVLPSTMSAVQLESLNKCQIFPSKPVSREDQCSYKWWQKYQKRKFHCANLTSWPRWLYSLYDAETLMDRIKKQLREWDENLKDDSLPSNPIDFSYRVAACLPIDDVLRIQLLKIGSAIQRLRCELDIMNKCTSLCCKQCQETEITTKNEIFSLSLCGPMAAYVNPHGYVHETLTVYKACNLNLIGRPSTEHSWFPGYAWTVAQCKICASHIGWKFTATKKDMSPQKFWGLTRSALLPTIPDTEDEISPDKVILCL

With `O=C1CCC(Nc2cccc(N3CCN(CC4CCN(CC(=O)N5CCC(NC(=O)c6n[nH]cc6NC(=O)c6c(Cl)cccc6Cl)CC5)CC4)CC3)c2)C(=O)N1` (centres undefined) the Activity [1] was “inactive”, the Activity [2] was 91.2% and the inhibition [3] was “Active”. The inhibition [4] was 56%, the Activity [5] was “Active” and the inhibition [6] was “Active”. The Activity [7] was “Active”, the inhibition [8] was “Active” and the Activity [9] was “Time-dependent-effect”. The Activity [10] was “Active”, the inhibition [11] was “Active” and the Activity [12] was “Active”. The inhibition [13] was 34%, the inhibition [14] was 95% and the Activity [15] was “inactive”. For the same compound, the Activity [16] was “Active”, the Activity [17] was “inactive” and the Activity [18] was “inactive”. For the same compound, the inhibition [19] was 55%, the Activity [20] was “Active” and the inhibition [21] was 52%. The Activity [22] was “Active”, the Activity [23] was “Active” and the inhibition [24] was 15%.

From ChEMBL document CHEMBL6121063, “Identification of a Potent and Selective CDK9 Degrader as a Targeted Therapeutic Option for the Treatment of Small-Cell Lung Cancer” (J Med Chem, 2025)
